Measured values published in patent US5567704A, “R-enatiomerically pure hydroxylated xanthine compounds to treat baldness” (priority 1995, dated 1996).

Assays:
[1] = test system: lysophosphatidic acid acyl transferase (LPAAT); assay: in vitro inhibition of LPAAT in 3T3 Ras-transformed fibroblasts stimulated with IL-1β; assay type: cell-based
Experimental: FIG. 17 illustrates a comparison of CT1501R, its S isomer CT1501S, and PTX on in vitro inhibition of lysophosphatidic acid acyl transferase (LPAAT), an enzyme involved in second messenger signaling. […] LPAAT activity was determined in 3T3 Ras-transformed fibroblasts stimulated with IL-1β.
One in vitro assay measures inhibition of the relevant enzymes lysophosphatidic acid acyltransferase (LPAAT) and phosphatidic acid phosphoryl hydrolase (PAPH). The assay involves incubating of target cells with a primary stimulus (e.g., a variety of cytokines, growth factors, oncogene products, putative therapeutic agents, irradiation, viral infection, toxins, bacterial infection and the products thereof, and any stimulus which, if not counteracted, has a deleterious effect on the target cell) in the presence or absence of an inventive compound at varying dosage levels. Target cells include, for example, subcellular entities, such as, microsomes derived from mesenchymal and/or ectodermal cells, particularly microsomes from marrow stromal cells or human or rat mesangial cells; microsomes or synaptosomes derived from brain; plasma membrane-enriched microsomes, plasma membranes derived as described in Bursten et at. (J. Biol. Chem. 226:20732-20743, 1991 ), or detergent-solubilized microsomes; synaptosomes, and membranes or other cell preparations solubilized using, for example, NP-40, Miranal, SDS or other neutral detergents; and detergent-solubilized, recombinant, or further purified preparations of cell proteins, including the proteins LPAAT and/or PAPH. After incubation for short periods of time, cell lipids are extracted and assayed by […] according to standard procedures. Briefly, lipids are extracted using, for example, chloroform:methanol 2:1 (v/v), and the extracts are then subjected to HPLC as described in Bursten and Harris, Biochemistry 30:6195-6203, 1991. A Rainin® mu-Porasil column is used with a 3:4 hexane:propanol organic carrier and a 1-10% water gradient during the first 10 minutes of separation. Detection of the peaks in the elution pattern is by absorption in the range of ultraviolet which detects isolated double bonds. The relevant peaks of unsaturated PA and DAG are shown in the elution pattern. It is important to note that the assay method permits discrimination between various forms of PA and DAG so that those relevant to the pathway affected by the (R) or (S) compounds of the invention can be measured directly. Confirmation of the nature of the acyl substituents of these components is accomplished using fast-atom bombardment mass spectroscopy. Thus, the relevant unsaturated (non-arachidonic) PA and DAG subspecies may be detected. The time periods employed are 5-60 seconds after stimulation with the primary stimulus, such as a cytokine. This technique permits assessment of the levels of various lipid components as a function of time.

stromelysin/PUMP-1 = assay: PUMP-1 activity induced by IL-1; assay type: cell-based; conditions: induced by 100 U/ml of IL-1
Source text: Metalloproteases mediate tissue damage such as glomerular diseases of the kidney, joint destruction in arthritis, and lung destruction in emphysema, and play a role in tumor metastases. Three examples of metalloproteases include a 92 kD type V gelatinase induced by TNF, IL-1 and PDGF plus bFGF, a 72 kD type IV collagenase that is usually constitutive and induced by TNF or IL-1, and a stromelysin/PUMP-1 induced by TNF and IL-1. The inventive compounds can inhibit TNF or IL-1 induction of the 92 kD type V gelatinase inducable metalloprotease. Moreover, CT 1501R reduced PUMP- 1 activity induced by 100 U/ml of IL-1 to 15% of its control levels. […] Accordingly, the inventive compounds prevent induction of certain metalloproteases induced by IL-1 or TNF and are not involved with constitutively produced proteases (e.g., 72 kD type IV collagenase) involved in normal tissue remodeling.

[2] = test system: TNF-α release from IL-1α activated PEC; assay: TNF-α release from IL-1α-activated peritoneal macrophages (ELISA); assay type: cell-based, murine; conditions: Mus musculus, Peritoneal macrophage, 50 ng/ml IL-1α, 24, 48 or 72 hrs, FIG. 20, read-out: inhibition of induced levels of TNF-α
Experimental: Murine peritoneal exudate cell macrophages (PEC) were isolated by perfusion of mouse peritoneum and plated into 96-well trays at 5×10^5 cells per well. Cells were stimulated with 5 μg/ml Salmonella abortus equi -derived endotoxin (LPS; Sigma Chemical Co., L-1887) or […] IL-1α (Genzyme; Cambridge, Mass.) with or without the addition of CT1501R added to the cultures one hour prior to addition of the stimulus. At various times thereafter, supernatants were removed and levels of either TNF-α or IL-1α were assayed using commercial 96-well microtiter immunoassay kits (Genzyme; TNF; Endogen, Boston, Mass.; IL-1α) according to manufacturer's specifications. For the adhesion studies, early passage human umbilical vein endothelial cells (HUVEC) were obtained. from commercial suppliers (Clonetics, San Diego, Calif. or Cell Systems, Seattle, Wash.) and cultured in defined, Hepes buffered, serum free medium (Cell Systems, cat 301-180) supplemented with acidic FGF (Cell Systems cat 401-111). 4000 cells were plated into each well of a 96-well microtiter plate and allowed to incubate for 72 hrs at 37° C. […] After addition of […] Hanks Balanced Salt Solution (HBSS), the microtiter plate was then analyzed on a Millipore Cytofluor fluorescent plate reader (excitation 488 nm; emission 525 nm). […]

C[C@@H](O)CCCCn1c(=O)c2c(ncn2C)n(C)c1=O [CT1501R, (R)-1-(5-hydroxyhexyl)-3,7-dimethylxanthine]
potency relative to the S enantiomer [1]: many times more potent than the corresponding S enantiomer
potency relative to the racemic mixture (M1) [1]: two to three time more potent than the racemic mixture
inhibition of LPAAT enzyme activity ([1]; 3T3 Ras-transformed fibroblasts, IL-1β, FIG. 17): significantly inhibited enzyme activity
PUMP-1 activity, % of control levels (stromelysin/PUMP-1): 15%
inhibition at 250 µM [2]: 50 to 70%
